Tests used:
[1] = target: T183K point mutant of hemY (Staphylococcus aureus, UniProt Q2FXA5, T183K); experiment: Activation of hemY, T183K mutant; assay type: biochemical, S. aureus
[2] = target: hemY/PPO (Bacillus subtilis, UniProt P32397); experiment: Activation of hemY/PPO, Bacillus subtilis; assay type: biochemical
[3] = target: T1, wild type S. aureus hemY (Staphylococcus aureus, UniProt Q2FXA5); experiment: Activation of hemY, wild type; assay type: biochemical
T1 sequence (Q2FXA5 1-466): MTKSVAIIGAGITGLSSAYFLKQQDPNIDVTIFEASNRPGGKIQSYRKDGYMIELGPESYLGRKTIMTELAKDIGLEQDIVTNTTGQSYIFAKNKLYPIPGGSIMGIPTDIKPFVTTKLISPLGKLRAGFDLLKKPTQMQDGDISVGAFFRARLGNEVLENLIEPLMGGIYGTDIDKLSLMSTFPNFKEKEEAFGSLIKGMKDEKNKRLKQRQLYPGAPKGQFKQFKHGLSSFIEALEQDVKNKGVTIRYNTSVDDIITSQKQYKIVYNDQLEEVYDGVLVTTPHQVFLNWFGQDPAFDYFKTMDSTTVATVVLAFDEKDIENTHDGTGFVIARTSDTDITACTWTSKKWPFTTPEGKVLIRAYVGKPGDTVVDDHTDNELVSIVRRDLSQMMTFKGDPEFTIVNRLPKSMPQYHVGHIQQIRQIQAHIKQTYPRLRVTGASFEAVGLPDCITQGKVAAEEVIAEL

[4] = target: T2, mammalian PPO (Homo sapiens, UniProt P50336); experiment: Activation of mammalian PPO; assay type: biochemical
T2 sequence (P50336 1-477): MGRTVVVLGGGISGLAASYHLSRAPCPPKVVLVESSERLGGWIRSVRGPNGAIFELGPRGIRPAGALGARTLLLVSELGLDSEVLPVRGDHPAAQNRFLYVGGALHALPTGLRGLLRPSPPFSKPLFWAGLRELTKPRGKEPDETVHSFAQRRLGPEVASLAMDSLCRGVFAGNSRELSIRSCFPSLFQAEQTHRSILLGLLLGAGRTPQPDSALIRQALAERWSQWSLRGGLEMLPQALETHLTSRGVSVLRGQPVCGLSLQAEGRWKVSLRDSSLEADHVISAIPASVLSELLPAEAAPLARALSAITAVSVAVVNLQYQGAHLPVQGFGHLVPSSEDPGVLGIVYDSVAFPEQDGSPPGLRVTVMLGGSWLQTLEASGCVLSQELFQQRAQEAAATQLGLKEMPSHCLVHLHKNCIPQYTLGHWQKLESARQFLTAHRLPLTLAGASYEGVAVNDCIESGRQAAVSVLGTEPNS

[5] = test system: heme biosynthetic pathway; experiment: Accumulation of heme precursor molecules; assay type: cell-based, S. aureus; conditions: data not shown
Source text: Because ALA is the first committed precursor molecule in the heme biosynthetic pathway, if ALA is contacted with bacteria, the bacteria will generated enhanced amounts of all of the heme precursor molecules downstream of ALA.

[6] = test system: S. aureus; experiment: Phototherapy: compound plus light, CFU count; assay type: cell-based
Procedure: Briefly, S. aureus was incubated with the 882 compound for 30 minutes at 37° C., treated with light for 45 minutes (500 W halogen), and then a colony-forming unit (CFU) count was conducted.

[7] = test system: hemY/PPO; experiment: Activation of hemY/PPO, Propionibacterium acnes; assay type: biochemical

Chain of hemY/PPO (Bacillus subtilis, UniProt P32397) (P32397 whole entry): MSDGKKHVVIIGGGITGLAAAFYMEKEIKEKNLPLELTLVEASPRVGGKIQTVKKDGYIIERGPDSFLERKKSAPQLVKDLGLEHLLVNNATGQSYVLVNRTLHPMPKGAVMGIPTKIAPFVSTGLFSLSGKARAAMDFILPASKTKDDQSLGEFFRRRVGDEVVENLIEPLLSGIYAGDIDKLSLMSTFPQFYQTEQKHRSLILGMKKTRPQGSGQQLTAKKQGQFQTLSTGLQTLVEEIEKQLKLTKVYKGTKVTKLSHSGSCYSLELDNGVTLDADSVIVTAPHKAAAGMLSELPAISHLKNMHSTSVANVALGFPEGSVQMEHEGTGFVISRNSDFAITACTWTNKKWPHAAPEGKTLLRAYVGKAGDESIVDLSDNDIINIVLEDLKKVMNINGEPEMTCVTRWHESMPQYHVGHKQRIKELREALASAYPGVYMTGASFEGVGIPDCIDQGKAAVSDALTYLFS

Compound: Oc1c(-c2cc(-c3ccco3)[nH]n2)ccc2ccccc12 [882 compound]
- activation of hemY [1]: not the T183K point mutant of hemY
- activation of hemY/PPO [2]: activates hemY/PPO in Bacillus subtilis
- activation of hemY [3]: activates wild type S. aureus hemY
- activation of PPO [4]: activates
- PPIX accumulation [5]: does increase PPIX accumulation
- accumulation of PBG [5]: does not
- toxicity with light compared to ALA and light ([6]; 882 50 μM and light vs ALA 10 mg/mL and light): more toxic to the bacteria than ALA
- photosensitization ([6]; 30 min at 37° C., light 45 min (500 W halogen), CFU count): leads to staphylococcal photosensitization
- activation of hemY/PPO [7]: activates
